# Publication PMC9785812 (Pharmaceutics, 2022)
# Where “and” joins values, the source holds several entries; their conditions need not be identical. Equal entries are not always repeated.
# Tests used:
# [1] = Ex vivo biodistribution in healthy BALB/c mice; set-up: species or system mouse
# Method: Quantification of activity was performed with an automated gamma counter equipped with a 3-in NaI(Tl) detector coupled to a multichannel analyzer (2480 Wizard^2, Perkin Elmer, Zaventem, Belgium). The results were corrected for background signal, physical decay during counting and detector dead time.
# All animal experiments were performed in compliance with the Ethical Committee Animal Studies of Medanex Clinic (EC MxCl 2020-163 and EC MxCl 2021-173), the Belgian laboratory animal legislation and the European Communities Council Directive of 22 September 2010 (2010/63/EU). Male BALB/c and NMRI nude mice were purchased from Janvier (Bio Services, Uden, The Netherlands) and housed in ventilated cages under standard laboratory conditions (12 h light/dark cycle) at the animal facility of SCK CEN. All animals had access to food and water ad libitum.
# Additionally, similar biodistribution studies were performed with free (unlabeled) [^153Sm]SmCl3 to identify the organs with ^153Sm accumulation in case of release from the complex. […] The mice were sacrificed by an overdose pentobarbital (200 µL of 60 mg/mL) 1, 4, 24 and 72 h post-injection (p.i.) (n = 3–4 per time point). Blood was collected via cardiac puncture. Organs of interest were collected in tared tubes and weighed. The activity in the different organs was measured in the gamma counter. For the calculation of the total activity in the blood, bone and muscle, the masses were assumed to be, respectively, 7, 12 and 40% of the total body mass. Data were expressed as a percentage of injected activity (%IA) and standardized uptake value (SUV). %IA was calculated as (counts per min (cpm) in organ)/(IA converted to cpm) × 100. SUV was calculated as (activity in cpm in organ/weight of organ in g)/(IA/total body weight in g).
# SSTR2 in CA20948 cells = settings: cited from earlier work
# [2] = 1 h p.i., healthy male BALB/c mice, ~2-3 MBq i.v., mean ± SD, n = 3-4
# [3] = 4 h p.i., healthy male BALB/c mice, ~2-3 MBq i.v., mean ± SD, n = 3-4
# [4] = 24 h p.i., healthy male BALB/c mice, ~2-3 MBq i.v., mean ± SD, n = 3-4
# [5] = 72 h p.i., healthy male BALB/c mice, ~2-3 MBq i.v., mean ± SD, n = 3-4
# [6] = mouse, in vivo, iv, listed as [153Sm]SmCl3
structure (smiles),measurement,setting,value
"[153Sm+3].[Cl-].[Cl-].[Cl-] [[^153Sm]SmCl3, reference compound]",Blood SUV,[1]; [2],2.0 ± 0.5
same,Heart SUV,[1]; [2],0.7 ± 0.2
same,Lungs %IA,[1]; [2],0.9 ± 0.2 %IA
same,Lungs SUV,[1]; [2],1.0 ± 0.2
same,Pancreas SUV,[1]; [2],0.2 ± 0.1
same,Stomach %IA,[1]; [2],0.5 ± 0.2 %IA
same,Bone %IA,[1]; [3],20.1 ± 6.7 %IA
same,Heart %IA,[1]; [3],0.2 ± 0.0 %IA
same,Intestines %IA,[1]; [3],1.7 ± 0.2 %IA
same,Stomach %IA,[1]; [3],0.2 ± 0.0 %IA
same,Blood %IA,[1]; [4],0.2 ± 0.0 %IA
same,Heart SUV,[1]; [4],0.2 ± 0.0
same,Intestines %IA,[1]; [4],1.0 ± 0.2 %IA
same,Lungs SUV,[1]; [4],0.2 ± 0.0
same,Stomach %IA,[1]; [4],0.2 ± 0.2 %IA
same,Lungs SUV,[1]; [5],0.2 ± 0.0
same,Muscle %IA,[1]; [5],0.9 ± 0.2 %IA
same,Stomach %IA,[1]; [5],0.2 ± 0.1 %IA
same,Bone SUV,"[1]; mouse, in vivo, iv",3.1 ± 1.3
same,Brain SUV,"[1]; mouse, in vivo, iv",0.0 ± 0.0
same,Liver SUV,"[1]; mouse, in vivo, iv",7.7 ± 1.8
same,Lungs SUV,"[1]; mouse, in vivo, iv",0.4 ± 0.0
same,Bone %IA,[1]; [6],12.1 ± 0.3 %IA and 17.6 ± 3.7 %IA and 21.9 ± 8.9 %IA
same,Bone SUV,[1]; [6],1.7 ± 0.0 and 2.9 ± 1.0 and 2.5 ± 0.5
same,Excreted %IA,[1]; [6],26.0 ± 8.0 %IA and 21.4 ± 3.9 %IA and 24.2 ± 4.2 %IA and 34.8 ± 11.6 %IA
same,Intestines %IA,[1]; [6],2.4 ± 0.5 %IA and 1.5 ± 0.5 %IA
same,Liver %IA,[1]; [6],35.9 ± 6.4 %IA and 54.3 ± 5.3 %IA and 53.9 ± 4.2 %IA and 42.9 ± 9.2 %IA
same,Liver SUV,[1]; [6],6.9 ± 0.5 and 11.2 ± 1.3 and 10.5 ± 0.8
O=C([O-])CN(CCN(CC(=O)[O-])CC(=O)[O-])CCN(CC(=O)[O-])CC(=O)[O-].[177Lu+3] [[^177Lu]Lu-DTPA],affinity towards SSTR2,SSTR2 in CA20948 cells,complete lack of affinity
